{"source": "patent US20220387447A1", "about": "“FORMULATIONS OF TESTOSTERONE AND METHODS OF TREATMENT THEREWITH” (BOARD OF REGENTS, THE UNIVERSITY OF TEXAS SYSTEM, priority 2016, published 2022)", "origin": "cited, not measured here", "key": {"women": {"test_system": "women", "conditions": "single-dose administration, sublingually"}, "[1]": {"conditions": "intranasal administration; baseline mean 2.5 pmol/L"}}}
{"smiles": "CC12CCC(=O)C=C1CCC1C2CCC2(C)C(O)CCC12", "note": "(centres unmarked) [testosterone, Testosterone]", "values": [{"measurement": "subjective sexual desire, genital responsiveness, and genital arousal", "setting": "women", "result": "increase"}, {"measurement": "maximum testosterone concentration (mean)", "setting": "[1]", "result": 168.2, "unit": "pmol/L"}]}
